# Source: PMC8693655, “Functional Characterization of BrF3'H, Which Determines the Typical Flavonoid Profile of Purple Chinese Cabbage” (Frontiers in Plant Science, 2021)
# Where two headings read alike, the source gives them in different places.
# Biological target: T1, BrF3′H (BrF3′H-8267) (Brassica rapa, UniProt M4CYL5)
# T1 construct: full-length ORF, 511 residues, C-terminal V5 and 6xHis tags (pYES-DEST52); yeast WAT11 microsomes with Arabidopsis reductase ATR1 as redox partner
# Experiment: HPLC of […]'-hydroxylation by yeast microsomes
# Assay type: biochemical
# Details: 1 mM NADPH, 100 mM Tris-Cl pH 7.5, 30°C, 20 min, 10 μg microsomal protein, Arabidopsis ATR1 reductase
# T1 sequence (M4CYL5 entry or part of it): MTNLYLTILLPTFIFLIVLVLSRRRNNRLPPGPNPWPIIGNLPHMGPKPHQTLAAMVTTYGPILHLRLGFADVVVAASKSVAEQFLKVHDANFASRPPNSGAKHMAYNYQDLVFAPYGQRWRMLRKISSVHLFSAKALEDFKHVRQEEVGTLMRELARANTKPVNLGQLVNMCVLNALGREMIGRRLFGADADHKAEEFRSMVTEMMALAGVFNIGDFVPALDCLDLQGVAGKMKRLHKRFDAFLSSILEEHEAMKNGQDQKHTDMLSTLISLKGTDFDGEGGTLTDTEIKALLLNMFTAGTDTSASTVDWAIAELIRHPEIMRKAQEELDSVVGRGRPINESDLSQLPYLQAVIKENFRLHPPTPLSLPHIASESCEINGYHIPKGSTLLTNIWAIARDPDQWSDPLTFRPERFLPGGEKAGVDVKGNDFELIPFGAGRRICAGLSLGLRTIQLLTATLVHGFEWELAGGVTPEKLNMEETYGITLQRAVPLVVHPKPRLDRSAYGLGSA
smiles,measurement,setting,value
"O=C1c2c(O)cc(O)cc2OC(c2ccc(O)cc2)C1O (racemic) [DHK, dihydrokaempferol]",Km,read-out: Substrates / DHK,3.6 mM
"O=C1CC(c2ccc(O)cc2)Oc2cc(O)cc(O)c21 (racemic) [Nar, naringenin]",Km,read-out: Substrates / Nar,1.72 ± 0.152 mM
"O=c1c(O)c(-c2ccc(O)cc2)oc2cc(O)cc(O)c12 [K, kaempferol]",Km,read-out: Substrates / K,0.942 ± 0.065 mM
